Experimental data as given in patent US12077503B2, “Substituted cyclic amides and their use as herbicides” (FMC CORPORATION, priority 2015, dated 2024).

What was measured:
Type in all cases: in vivo
Kochia (Kochia scoparia) [1] = assay: Test A preemergence
Summary of the method: (§1)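 Seeds sprayed preemergence with a directed soil spray, or plants at 2 to 10 cm height and one- to two-leaf stage sprayed postemergence, with test chemicals in a non-phytotoxic solvent mixture containing surfactant, in loam soil–sand blend. Injury rated visually against untreated controls after about 10 d in greenhouse, 0 (no effect) to 100 (complete control).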

[2] = system: barnyardgrass (Echinochloa crus-galli); assay: Test A preemergence
Summary of the method: as §1

[3] = system: giant foxtail (Setaria faberii); assay: Test A preemergence
Summary of the method: as §1

[4] = system: pigweed (Amaranthus retroflexus); assay: Test A preemergence
[5] = system: ragweed (common ragweed, Ambrosia elatior); assay: Test A preemergence
Summary of the method: as §1

[6] = system: ryegrass, Italian (Italian ryegrass, Lolium multiflorum); assay: Test A preemergence
Summary of the method: as §1

[7] = system: Galium (catchweed bedstraw, Galium aparine); assay: Test A postemergence
Summary of the method: as §1

Kochia (Kochia scoparia) [8] = assay: Test A postemergence
Summary of the method: as §1

[9] = system: barnyardgrass (Echinochloa crus-galli); assay: Test A postemergence
Summary of the method: as §1

[10] = system: blackgrass (Alopecurus myosuroides); assay: Test A postemergence
Summary of the method: as §1

corn (Zea mays) = assay: Test A postemergence
Summary of the method: as §1

[11] = system: giant foxtail (Setaria faberii); assay: Test A postemergence
Summary of the method: as §1

[12] = system: pigweed (Amaranthus retroflexus); assay: Test A postemergence
Summary of the method: as §1

[13] = system: ragweed (common ragweed, Ambrosia elatior); assay: Test A postemergence
Summary of the method: as §1

[14] = system: ryegrass, Italian (Italian ryegrass, Lolium multiflorum); assay: Test A postemergence
Summary of the method: as §1

[15] = system: wheat (Triticum aestivum); assay: Test A postemergence
Summary of the method: as §1

[16] = system: barnyardgrass (Echinochloa crus-galli); assay: Test B flooded paddy test; settings: Flood, 250 g ai/ha, 0 to 100 scale where 0 is no effect and 100 is complete control; for Plant response rating, Barnyardgrass: 13 to 15 d
Summary of the method: (§2)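 Flooding to 3 cm over soil accompanied treatment, which consisted of adding compound to the standing water around 2-leaf plants; depth was then maintained. Visual assessment versus controls followed at 13 to 15 d (scale 0–100, 0 meaning no effect).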

[17] = system: ducksalad (Heteranthera limosa); assay: Test B flooded paddy test; settings: Flood, 250 g ai/ha, 0 to 100 scale where 0 is no effect and 100 is complete control; for Plant response rating, Ducksalad: 13 to 15 d
Summary of the method: as §2

rice (Oryra sativa) = assay: Test B flooded paddy test; settings: Flood, 250 g ai/ha, 0 to 100 scale where 0 is no effect and 100 is complete control; for Plant response rating, Rice: 13 to 15 d
Summary of the method: as §2

[18] = system: sedge, umbrella (small-flower umbrella sedge, Cyperus difformis); assay: Test B flooded paddy test; settings: Flood, 250 g ai/ha, 0 to 100 scale where 0 is no effect and 100 is complete control; for Plant response rating, Sedge, Umbrella: 13 to 15 d
Summary of the method: as §2

[19] = 125 g ai/ha, preemergence, 0 to 100 scale (0 no effect, 100 complete control)
[20] = Preemergence, 500 g ai/ha, 0 is no effect, 100 is complete control
[21] = 500 g ai/ha, postemergence, 0 to 100 scale, 0 no effect, 100 complete control
[22] = Postemergence, 125 g ai/ha, visual injury, 0 to 100 scale (0 no effect, 100 complete control), approx. 10 d
[23] = 125 g ai/ha, Preemergence, visual injury rating after approximately 10 d
[24] = 500 g ai/ha, preemergence, visual injury rating about 10 d after treatment, 0 to 100 scale (0 no effect, 100 complete control)
[25] = 125 g ai/ha, Postemergence, visual injury after approximately 10 d, 0 to 100 scale where 0 is no effect and 100 is complete control
[26] = 500 g ai/ha, postemergence, visual injury, 0 to 100 scale (0 no effect, 100 complete control), approx. 10 d
[27] = 125 g ai/ha, Preemergence, visual injury after approximately 10 d, 0 to 100 scale where 0 is no effect and 100 is complete control
[28] = Preemergence, 500 g ai/ha, visual injury approx. 10 d
[29] = 125 g ai/ha, postemergence, visual rating after approx. 10 d, 0 to 100 scale (0 no effect, 100 complete control)
[30] = Postemergence, 500 g ai/ha, 0 to 100 scale where 0 is no effect and 100 is complete control
[31] = 125 g ai/ha, postemergence, visual injury rating on 0 to 100 scale (0 no effect, 100 complete control), approx. 10 d

CC(C)Oc1cccc(C2CN(C)C(=O)C2C(=O)Nc2ccc(F)cc2F)c1 (centres unmarked) [Compound 378]
Plant response rating, Kochia (Kochia (Kochia scoparia) [1]; [19]): 80 | Kochia plant response rating (0 to 100 scale) (Kochia (Kochia scoparia) [1]; [20]): 90 | Plant response rating, Barnyardgrass [2, 19]: 20 | Barnyardgrass plant response rating (0 to 100 scale) [2, 20]: 90 | Plant response rating, Foxtail, Giant [3, 19]: 90 | Foxtail, Giant plant response rating (0 to 100 scale) [3, 20]: 100 | Plant response rating, Pigweed [4, 19]: 60 | Pigweed plant response rating (0 to 100 scale) [4, 20]: 80 | Plant response rating, Ragweed [5, 19]: 10 | Ragweed plant response rating (0 to 100 scale) [5, 20]: 50 | Plant response rating, Ryegrass, Italian [6, 19]: 50 | Ryegrass, Italian plant response rating (0 to 100 scale) [6, 20]: 80 | Plant response rating, Galium [7, 21]: 70 | Plant response rating, Galium [7, 22]: 60 | Plant response rating, Kochia (Kochia (Kochia scoparia) [8]; [21]): 70 | Plant response rating, Kochia (Kochia (Kochia scoparia) [8]; [22]): 50 | Plant response rating, Barnyardgrass [9, 21]: 90 | Plant response rating, Barnyardgrass [9, 22]: 80 | Plant response rating, Blackgrass [10, 21]: 70 | Plant response rating, Blackgrass [10, 22]: 50 | Plant response rating, Corn (corn (Zea mays); [21]): 80 | Plant response rating, Corn (corn (Zea mays); [22]): 50 | Plant response rating, Foxtail, Giant [11, 21]: 80 | Plant response rating, Foxtail, Giant [11, 22]: 80 | Plant response rating, Pigweed [12, 21]: 50 | Plant response rating, Pigweed [12, 22]: 0 | Plant response rating, Ragweed [13, 21]: 50 | Plant response rating, Ragweed [13, 22]: 20 | Plant response rating, Ryegrass, Italian [14, 21]: 70 | Plant response rating, Ryegrass, Italian [14, 22]: 40 | Plant response rating, Wheat [15, 21]: 50 | Plant response rating, Wheat [15, 22]: 40 | Plant response rating, Barnyardgrass [16]: 70 | Plant response rating, Ducksalad [17]: 30 | Plant response rating, Rice (rice (Oryra sativa)): 0 | Plant response rating, Sedge, Umbrella [18]: 0

Cc1ccc([C@H]2CN(C)C(=O)[C@@H]2C(=O)Nc2ccccc2[S+](C)[O-])cc1Cl (some centres unmarked) [Compound 1017]
Kochia plant response rating (0 to 100 scale, 0 is no effect, 100 is complete control) (Kochia (Kochia scoparia) [1]; [23]): 0 | Kochia plant response rating (Kochia (Kochia scoparia) [1]; [24]): 70 | Barnyardgrass plant response rating (0 to 100 scale, 0 is no effect, 100 is complete control) [2, 23]: 90 | Barnyardgrass plant response rating [2, 24]: 90 | Foxtail, Giant plant response rating (0 to 100 scale, 0 is no effect, 100 is complete control) [3, 23]: 90 | Foxtail, Giant plant response rating [3, 24]: 90 | Pigweed plant response rating (0 to 100 scale, 0 is no effect, 100 is complete control) [4, 23]: 50 | Pigweed plant response rating [4, 24]: 60 | Ragweed plant response rating (0 to 100 scale, 0 is no effect, 100 is complete control) [5, 23]: 0 | Ragweed plant response rating [5, 24]: 90 | Ryegrass, Italian plant response rating (0 to 100 scale, 0 is no effect, 100 is complete control) [6, 23]: 0 | Ryegrass, Italian plant response rating [6, 24]: 70 | Plant response rating, Galium [7, 25]: 40 | Plant response rating, Galium [7, 26]: 70 | Plant response rating, Kochia (Kochia (Kochia scoparia) [8]; [25]): 40 | Plant response rating, Kochia (Kochia (Kochia scoparia) [8]; [26]): 60 | Plant response rating, Barnyardgrass [9, 25]: 90 | Plant response rating, Barnyardgrass [9, 26]: 90 | Plant response rating, Blackgrass [10, 25]: 0 | Plant response rating, Blackgrass [10, 26]: 40 | Plant response rating, Corn (corn (Zea mays); [25]): 80 | Plant response rating, Corn (corn (Zea mays); [26]): 90 | Plant response rating, Foxtail, Giant [11, 25]: 90 | Plant response rating, Foxtail, Giant [11, 26]: 90 | Plant response rating, Pigweed [12, 25]: 0 | Plant response rating, Pigweed [12, 26]: 40 | Plant response rating, Ragweed [13, 25]: 0 | Plant response rating, Ragweed [13, 26]: 40 | Plant response rating, Ryegrass, Italian [14, 25]: 30 | Plant response rating, Ryegrass, Italian [14, 26]: 50 | Plant response rating, Wheat [15, 25]: 20 | Plant response rating, Wheat [15, 26]: 60 | Barnyardgrass plant response rating [16]: 70 | Ducksalad plant response rating [17]: 90 | Rice plant response rating (rice (Oryra sativa)): 30 | Sedge, Umbrella plant response rating [18]: 0

COc1c(F)ccc(NC(=O)C2C(=O)NCC2c2cccc(OC(F)(F)C(F)F)c2)c1F (racemic) [Compound 540]
Plant response rating, Kochia (Kochia (Kochia scoparia) [1]; [27]): 0 | Kochia plant response rating (0 to 100 scale, 0 is no effect, 100 is complete control) (Kochia (Kochia scoparia) [1]; [28]): 20 | Plant response rating, Barnyardgrass [2, 27]: 80 | Barnyardgrass plant response rating (0 to 100 scale, 0 is no effect, 100 is complete control) [2, 28]: 90 | Plant response rating, Foxtail, Giant [3, 27]: 90 | Foxtail, Giant plant response rating (0 to 100 scale, 0 is no effect, 100 is complete control) [3, 28]: 90 | Plant response rating, Pigweed [4, 27]: 0 | Pigweed plant response rating (0 to 100 scale, 0 is no effect, 100 is complete control) [4, 28]: 60 | Plant response rating, Ragweed [5, 27]: 0 | Plant response rating, Ryegrass, Italian [6, 27]: 0 | Ryegrass, Italian plant response rating (0 to 100 scale, 0 is no effect, 100 is complete control) [6, 28]: 40 | Plant response rating, Galium [7, 29]: 60 | Plant response rating, Galium [7, 30]: 70 | Plant response rating, Kochia (Kochia (Kochia scoparia) [8]; [29]): 0 | Plant response rating, Kochia (Kochia (Kochia scoparia) [8]; [30]): 0 | Barnyardgrass plant response rating [9, 31]: 60 | Plant response rating, Barnyardgrass [9, 30]: 70 | Blackgrass plant response rating [10, 31]: 50 | Plant response rating, Blackgrass [10, 30]: 60 | Plant response rating, Corn (corn (Zea mays); [29]): 30 | Plant response rating, Corn (corn (Zea mays); [30]): 60 | Plant response rating, Foxtail, Giant [11, 29]: 70 | Plant response rating, Foxtail, Giant [11, 30]: 90 | Plant response rating, Pigweed [12, 29]: 0 | Plant response rating, Pigweed [12, 30]: 0 | Plant response rating, Ragweed [13, 29]: 0 | Plant response rating, Ragweed [13, 30]: 20 | Plant response rating, Ryegrass, Italian [14, 29]: 0 | Plant response rating, Ryegrass, Italian [14, 30]: 30 | Plant response rating, Wheat [15, 29]: 0 | Plant response rating, Wheat [15, 30]: 60 | Plant response rating, Barnyardgrass [16]: 55 | Plant response rating, Ducksalad [17]: 75 | Plant response rating, Rice (rice (Oryra sativa)): 0 | Plant response rating, Sedge, Umbrella [18]: 0
